Test results as given in ChEMBL document CHEMBL4507319 (2021).
Calls of active or inactive are those of the source. The calls are words filed in the database; no cut-off is given here.

Assays:
[1] = biological target: Fibroblast growth factor receptor 2 (Homo sapiens) (UniProt P21802); conditions: Compound concentration 1000.0 nM
[2] = biological target: Receptor-interacting serine/threonine-protein kinase 2 (Homo sapiens) (UniProt O43353); conditions: Compound concentration 1000.0 nM
[3] = biological target: 5'-AMP-activated protein kinase catalytic subunit alpha-1 (Homo sapiens, UniProt Q13131); experiment: Biochemical PRKAA1 assay with 10 µM ATP (Bayer in house)
[4] = biological target: D(4) dopamine receptor (Homo sapiens) (UniProt P21917); conditions: Compound concentration 10.0 uM
[5] = biological target: Calcium/calmodulin-dependent protein kinase type 1 (Homo sapiens) (UniProt Q14012); conditions: Compound concentration 1000.0 nM
[6] = biological target: Serine/threonine-protein kinase 32B (Homo sapiens) (UniProt Q9NY57); conditions: Compound concentration 1000.0 nM
[7] = biological target: Mitogen-activated protein kinase 15 (Homo sapiens) (UniProt Q8TD08); conditions: Compound concentration 1000.0 nM
[8] = biological target: Leucine-rich repeat serine/threonine-protein kinase 2 (Homo sapiens) (UniProt Q5S007); conditions: Compound concentration 1000.0 nM
[9] = biological target: T1, Ephrin type-B receptor 1 (Homo sapiens) (UniProt P54762); conditions: Compound concentration 1000.0 nM
T1 sequence (whole entry): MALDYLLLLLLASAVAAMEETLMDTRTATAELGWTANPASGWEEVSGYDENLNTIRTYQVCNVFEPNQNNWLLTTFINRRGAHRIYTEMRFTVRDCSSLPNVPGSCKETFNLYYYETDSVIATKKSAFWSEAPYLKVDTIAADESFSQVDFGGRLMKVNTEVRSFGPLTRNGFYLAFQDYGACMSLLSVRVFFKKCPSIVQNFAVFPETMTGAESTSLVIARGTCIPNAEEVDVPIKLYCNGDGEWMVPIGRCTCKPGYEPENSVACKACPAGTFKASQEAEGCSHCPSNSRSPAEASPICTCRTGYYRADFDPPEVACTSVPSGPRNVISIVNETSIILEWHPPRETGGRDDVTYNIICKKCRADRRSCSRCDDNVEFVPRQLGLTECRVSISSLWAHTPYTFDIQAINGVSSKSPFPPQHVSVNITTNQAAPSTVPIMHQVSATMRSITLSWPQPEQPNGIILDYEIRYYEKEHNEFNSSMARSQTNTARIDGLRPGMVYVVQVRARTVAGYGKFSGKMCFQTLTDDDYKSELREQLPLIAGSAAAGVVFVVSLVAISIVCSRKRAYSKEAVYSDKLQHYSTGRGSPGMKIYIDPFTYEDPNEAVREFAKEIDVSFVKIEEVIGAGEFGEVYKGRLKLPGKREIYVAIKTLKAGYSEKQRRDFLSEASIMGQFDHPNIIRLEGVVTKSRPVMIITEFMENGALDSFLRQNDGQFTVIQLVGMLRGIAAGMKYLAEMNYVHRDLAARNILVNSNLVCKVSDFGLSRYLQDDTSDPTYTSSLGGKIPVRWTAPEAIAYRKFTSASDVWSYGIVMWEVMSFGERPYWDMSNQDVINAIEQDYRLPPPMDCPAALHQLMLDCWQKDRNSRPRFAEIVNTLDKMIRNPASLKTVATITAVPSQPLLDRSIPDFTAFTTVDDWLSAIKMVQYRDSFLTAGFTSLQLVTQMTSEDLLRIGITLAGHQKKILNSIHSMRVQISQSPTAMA

[10] = test system: Epidermal growth factor receptor (Homo sapiens), P00533 [UNDEFINED MUTATION]; conditions: Compound concentration 1000.0 nM
[11] = biological target: Cyclin-dependent kinase 2 homolog (Plasmodium falciparum (isolate 3D7)) (UniProt P61075); conditions: Compound concentration 1000.0 nM
[12] = biological target: Muscarinic acetylcholine receptor M5 (Homo sapiens) (UniProt P08912); conditions: Compound concentration 10.0 uM
[13] = biological target: T2, Tyrosine-protein kinase ITK/TSK (Homo sapiens) (UniProt Q08881); conditions: Compound concentration 1000.0 nM
T2 sequence (whole entry): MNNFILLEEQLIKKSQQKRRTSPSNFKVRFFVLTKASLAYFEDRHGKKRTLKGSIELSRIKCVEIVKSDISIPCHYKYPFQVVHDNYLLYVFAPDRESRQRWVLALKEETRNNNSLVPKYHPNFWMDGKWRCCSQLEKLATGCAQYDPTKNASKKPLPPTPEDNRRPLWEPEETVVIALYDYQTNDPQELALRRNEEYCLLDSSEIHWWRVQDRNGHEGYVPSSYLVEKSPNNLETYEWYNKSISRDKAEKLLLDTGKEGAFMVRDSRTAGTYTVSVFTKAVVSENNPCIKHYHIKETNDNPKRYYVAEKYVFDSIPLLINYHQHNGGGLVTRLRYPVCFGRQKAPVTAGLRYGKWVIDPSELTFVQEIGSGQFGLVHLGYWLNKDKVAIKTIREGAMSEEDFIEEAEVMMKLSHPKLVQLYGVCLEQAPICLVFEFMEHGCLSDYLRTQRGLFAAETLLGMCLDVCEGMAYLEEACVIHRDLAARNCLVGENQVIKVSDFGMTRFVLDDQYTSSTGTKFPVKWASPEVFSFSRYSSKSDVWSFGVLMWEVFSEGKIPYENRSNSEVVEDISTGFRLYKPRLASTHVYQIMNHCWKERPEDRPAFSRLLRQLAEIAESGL

[14] = biological target: Fibroblast growth factor receptor 4 (Homo sapiens) (UniProt P22455); conditions: Compound concentration 1000.0 nM
[15] = biological target: Alpha-2C adrenergic receptor (Homo sapiens) (UniProt P18825); conditions: Compound concentration 10.0 uM
[16] = biological target: Ribosomal protein S6 kinase alpha-1 (Homo sapiens, UniProt Q15418); conditions: Compound concentration 1000.0 nM
[17] = biological target: Macrophage colony-stimulating factor 1 receptor (Homo sapiens) (UniProt P07333); conditions: Compound concentration 1000.0 nM
[18] = biological target: Dual specificity mitogen-activated protein kinase kinase 5 (Homo sapiens) (UniProt Q13163); conditions: Compound concentration 1000.0 nM
Sequence of Dual specificity mitogen-activated protein kinase kinase 5 (Homo sapiens) (Q13163 whole entry): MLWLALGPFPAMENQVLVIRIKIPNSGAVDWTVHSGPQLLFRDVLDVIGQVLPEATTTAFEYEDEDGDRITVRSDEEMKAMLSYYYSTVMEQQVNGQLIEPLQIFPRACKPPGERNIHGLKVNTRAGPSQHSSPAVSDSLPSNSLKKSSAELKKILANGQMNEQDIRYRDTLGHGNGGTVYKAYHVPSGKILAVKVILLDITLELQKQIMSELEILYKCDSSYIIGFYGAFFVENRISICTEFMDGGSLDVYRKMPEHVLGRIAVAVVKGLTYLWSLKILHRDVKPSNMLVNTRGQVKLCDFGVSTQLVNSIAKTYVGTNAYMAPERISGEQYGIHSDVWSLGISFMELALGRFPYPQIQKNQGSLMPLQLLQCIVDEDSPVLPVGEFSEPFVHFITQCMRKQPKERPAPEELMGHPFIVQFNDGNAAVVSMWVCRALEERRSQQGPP

Sequence of Calcium/calmodulin-dependent protein kinase type 1 (Homo sapiens) (Q14012 whole entry, looked up): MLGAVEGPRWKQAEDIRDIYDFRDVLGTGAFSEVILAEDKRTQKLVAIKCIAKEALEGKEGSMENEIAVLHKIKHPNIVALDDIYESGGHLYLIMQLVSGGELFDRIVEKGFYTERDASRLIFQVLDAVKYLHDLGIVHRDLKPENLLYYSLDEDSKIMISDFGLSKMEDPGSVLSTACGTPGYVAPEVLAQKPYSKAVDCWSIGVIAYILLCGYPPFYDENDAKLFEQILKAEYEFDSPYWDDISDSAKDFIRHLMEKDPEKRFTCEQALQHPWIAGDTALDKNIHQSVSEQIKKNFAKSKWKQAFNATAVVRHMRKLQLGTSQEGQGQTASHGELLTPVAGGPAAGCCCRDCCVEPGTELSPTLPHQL
Sequence of Fibroblast growth factor receptor 4 (Homo sapiens) (P22455 22-802 limits assumed): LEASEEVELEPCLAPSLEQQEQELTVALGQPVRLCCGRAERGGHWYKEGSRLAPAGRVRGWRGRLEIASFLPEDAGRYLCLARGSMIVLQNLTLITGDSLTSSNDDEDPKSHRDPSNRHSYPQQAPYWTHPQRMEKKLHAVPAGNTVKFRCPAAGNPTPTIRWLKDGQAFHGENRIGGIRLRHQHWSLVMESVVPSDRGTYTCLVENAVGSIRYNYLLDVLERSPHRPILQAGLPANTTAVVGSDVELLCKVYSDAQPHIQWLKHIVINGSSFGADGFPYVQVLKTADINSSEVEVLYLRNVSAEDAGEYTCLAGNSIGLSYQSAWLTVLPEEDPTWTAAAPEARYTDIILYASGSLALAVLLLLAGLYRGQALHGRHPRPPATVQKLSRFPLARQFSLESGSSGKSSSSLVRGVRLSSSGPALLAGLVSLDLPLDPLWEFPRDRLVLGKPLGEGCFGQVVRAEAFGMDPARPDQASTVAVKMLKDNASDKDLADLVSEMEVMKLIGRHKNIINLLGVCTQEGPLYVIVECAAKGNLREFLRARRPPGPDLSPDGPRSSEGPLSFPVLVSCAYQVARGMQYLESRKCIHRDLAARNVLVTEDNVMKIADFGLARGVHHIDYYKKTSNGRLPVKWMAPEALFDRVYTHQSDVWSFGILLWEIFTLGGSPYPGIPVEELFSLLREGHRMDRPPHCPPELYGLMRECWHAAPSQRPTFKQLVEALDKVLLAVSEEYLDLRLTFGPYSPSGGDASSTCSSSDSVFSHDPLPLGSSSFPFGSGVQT
Sequence of Muscarinic acetylcholine receptor M5 (Homo sapiens) (P08912 whole entry): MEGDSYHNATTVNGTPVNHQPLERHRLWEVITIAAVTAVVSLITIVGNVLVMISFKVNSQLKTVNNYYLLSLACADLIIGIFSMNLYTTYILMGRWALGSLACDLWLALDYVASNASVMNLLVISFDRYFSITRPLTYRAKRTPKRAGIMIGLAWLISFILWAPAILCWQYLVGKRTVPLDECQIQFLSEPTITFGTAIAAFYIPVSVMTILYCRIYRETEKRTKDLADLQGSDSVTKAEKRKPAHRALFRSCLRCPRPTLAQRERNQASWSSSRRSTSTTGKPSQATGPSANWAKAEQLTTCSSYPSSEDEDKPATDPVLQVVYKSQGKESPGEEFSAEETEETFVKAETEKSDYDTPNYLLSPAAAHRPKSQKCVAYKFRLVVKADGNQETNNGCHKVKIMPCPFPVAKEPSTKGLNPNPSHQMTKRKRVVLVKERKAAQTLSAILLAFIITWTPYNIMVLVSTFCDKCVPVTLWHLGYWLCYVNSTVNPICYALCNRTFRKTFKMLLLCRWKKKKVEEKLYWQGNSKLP
Sequence of Fibroblast growth factor receptor 2 (Homo sapiens) (P21802 22-821 limits assumed): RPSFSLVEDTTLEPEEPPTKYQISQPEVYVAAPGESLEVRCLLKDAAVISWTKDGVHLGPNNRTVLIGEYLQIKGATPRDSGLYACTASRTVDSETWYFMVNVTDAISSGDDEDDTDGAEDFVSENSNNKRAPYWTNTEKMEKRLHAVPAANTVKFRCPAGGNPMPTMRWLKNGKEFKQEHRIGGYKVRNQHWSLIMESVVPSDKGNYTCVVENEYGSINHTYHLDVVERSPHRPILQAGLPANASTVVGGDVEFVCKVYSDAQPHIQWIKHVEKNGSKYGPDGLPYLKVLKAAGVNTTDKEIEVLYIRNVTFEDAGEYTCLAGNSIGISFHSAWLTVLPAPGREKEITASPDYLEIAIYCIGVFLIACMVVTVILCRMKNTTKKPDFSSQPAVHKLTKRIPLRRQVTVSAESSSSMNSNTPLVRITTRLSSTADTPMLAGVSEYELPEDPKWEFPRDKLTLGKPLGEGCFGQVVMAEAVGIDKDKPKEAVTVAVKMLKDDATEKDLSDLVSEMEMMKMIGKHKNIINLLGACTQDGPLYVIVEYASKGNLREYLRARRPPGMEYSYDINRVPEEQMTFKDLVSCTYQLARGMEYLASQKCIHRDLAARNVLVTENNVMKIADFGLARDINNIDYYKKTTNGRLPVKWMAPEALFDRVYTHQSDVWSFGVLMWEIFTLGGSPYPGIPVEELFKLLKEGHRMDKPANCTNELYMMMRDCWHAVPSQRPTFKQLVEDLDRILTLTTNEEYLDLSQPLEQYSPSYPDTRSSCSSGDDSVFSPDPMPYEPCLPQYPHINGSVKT
Sequence of 5'-AMP-activated protein kinase catalytic subunit alpha-1 (Q13131 whole entry): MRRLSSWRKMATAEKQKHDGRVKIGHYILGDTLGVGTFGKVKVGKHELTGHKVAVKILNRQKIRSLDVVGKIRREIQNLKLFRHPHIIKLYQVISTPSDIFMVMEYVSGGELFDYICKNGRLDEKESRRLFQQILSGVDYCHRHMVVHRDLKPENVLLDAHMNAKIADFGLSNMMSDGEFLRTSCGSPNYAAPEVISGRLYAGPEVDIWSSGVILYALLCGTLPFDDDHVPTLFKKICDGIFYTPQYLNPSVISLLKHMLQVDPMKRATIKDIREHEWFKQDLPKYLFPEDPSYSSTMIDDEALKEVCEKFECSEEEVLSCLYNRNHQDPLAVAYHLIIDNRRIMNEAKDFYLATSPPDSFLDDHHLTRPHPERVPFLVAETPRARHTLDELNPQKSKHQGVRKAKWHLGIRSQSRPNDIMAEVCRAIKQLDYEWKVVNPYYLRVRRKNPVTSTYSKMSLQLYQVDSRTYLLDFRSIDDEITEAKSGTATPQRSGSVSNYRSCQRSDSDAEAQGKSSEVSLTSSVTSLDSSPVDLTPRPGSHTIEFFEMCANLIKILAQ
Sequence of Mitogen-activated protein kinase 15 (Homo sapiens) (Q8TD08 whole entry): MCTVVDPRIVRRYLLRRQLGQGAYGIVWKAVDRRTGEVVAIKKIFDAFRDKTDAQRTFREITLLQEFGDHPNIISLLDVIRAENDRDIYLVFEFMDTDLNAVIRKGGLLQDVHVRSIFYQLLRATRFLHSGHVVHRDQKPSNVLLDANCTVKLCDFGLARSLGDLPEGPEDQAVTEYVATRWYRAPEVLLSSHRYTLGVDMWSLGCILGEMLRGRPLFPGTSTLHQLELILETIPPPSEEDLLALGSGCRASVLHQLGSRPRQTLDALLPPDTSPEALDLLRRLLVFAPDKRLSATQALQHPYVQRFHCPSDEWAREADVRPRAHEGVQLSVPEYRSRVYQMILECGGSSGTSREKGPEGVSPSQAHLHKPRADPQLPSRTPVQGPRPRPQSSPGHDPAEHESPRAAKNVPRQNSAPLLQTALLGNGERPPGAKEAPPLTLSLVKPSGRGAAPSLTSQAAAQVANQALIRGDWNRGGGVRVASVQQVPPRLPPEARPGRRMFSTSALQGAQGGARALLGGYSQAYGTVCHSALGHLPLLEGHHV
Sequence of Macrophage colony-stimulating factor 1 receptor (Homo sapiens) (P07333 whole entry): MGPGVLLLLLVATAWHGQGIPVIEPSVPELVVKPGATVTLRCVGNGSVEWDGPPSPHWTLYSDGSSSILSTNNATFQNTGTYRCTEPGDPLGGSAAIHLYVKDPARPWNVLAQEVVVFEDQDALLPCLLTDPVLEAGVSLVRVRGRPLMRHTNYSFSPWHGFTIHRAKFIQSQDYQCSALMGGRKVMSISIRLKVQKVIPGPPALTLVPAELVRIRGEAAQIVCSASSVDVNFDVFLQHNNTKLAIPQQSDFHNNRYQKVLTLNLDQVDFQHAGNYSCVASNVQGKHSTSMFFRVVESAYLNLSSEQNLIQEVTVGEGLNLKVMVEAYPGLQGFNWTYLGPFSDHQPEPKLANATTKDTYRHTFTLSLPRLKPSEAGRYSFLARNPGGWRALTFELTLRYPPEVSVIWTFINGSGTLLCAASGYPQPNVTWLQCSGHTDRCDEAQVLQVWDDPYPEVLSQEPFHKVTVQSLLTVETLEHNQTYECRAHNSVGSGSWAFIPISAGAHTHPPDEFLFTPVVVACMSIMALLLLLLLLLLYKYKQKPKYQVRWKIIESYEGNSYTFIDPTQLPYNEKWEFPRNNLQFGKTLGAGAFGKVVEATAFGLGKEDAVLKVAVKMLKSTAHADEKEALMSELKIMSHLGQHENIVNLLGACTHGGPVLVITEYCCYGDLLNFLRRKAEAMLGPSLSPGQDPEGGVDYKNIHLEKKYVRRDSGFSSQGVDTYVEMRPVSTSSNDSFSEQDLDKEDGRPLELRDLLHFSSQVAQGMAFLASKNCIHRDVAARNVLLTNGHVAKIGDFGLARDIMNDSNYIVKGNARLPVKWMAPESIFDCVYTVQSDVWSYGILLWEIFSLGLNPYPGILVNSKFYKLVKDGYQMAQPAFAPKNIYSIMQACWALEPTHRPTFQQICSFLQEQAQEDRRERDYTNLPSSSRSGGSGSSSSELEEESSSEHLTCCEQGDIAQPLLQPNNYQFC

SMILES: CCc1ccccc1C(=O)Nc1n[nH]c2c(C)c(F)c(C3C(C#N)=C(C)N(C)C(C)=C3C#N)cc12 [BAY-3827]
- residual activity [1]: 83%
- residual activity [2]: 100%
- IC50 [3]: 0.0014 µM (active)
- inhibition [4]: -0.18%
- residual activity [5]: 76%
- residual activity [6]: 98%
- residual activity [7]: 81%
- residual activity [8]: 100%
- residual activity [9]: 100%
- residual activity [10]: 52%
- residual activity [11]: 100%
- inhibition [12]: 17.9%
- residual activity [13]: 86%
- residual activity [14]: 100%
- inhibition [15]: 10%
- residual activity [16]: 1.8%
- residual activity [17]: 100%
- residual activity [18]: 100%

SMILES: CC1=C(C#N)C(c2ccc3c(c2)c(NC(=O)c2ccccc2C)nn3C)C(C#N)=C(C)N1 [BAY-974]
- residual activity [1]: 97%
- residual activity [2]: 100%
- IC50 [3]: > 20 µM (not active)
- inhibition [4]: 0.21%
- residual activity [5]: 98%
- residual activity [6]: 100%
- residual activity [7]: 89%
- residual activity [8]: 88%
- residual activity [9]: 99%
- residual activity [10]: 88%
- residual activity [11]: 84%
- inhibition [12]: 6.82%
- residual activity [13]: 97%
- residual activity [14]: 100%
- inhibition [15]: 10.2%
- residual activity [16]: 100%
- residual activity [17]: 100%
- residual activity [18]: 79%
